Experimental data published in US10287328B2, “Treatment of diabetes, toll-like receptor 4 modulators and methods for using the same” (KeMyth Biotech Co., Ltd., priority 2016, dated 2019).
Where a SMILES comes first, the peptide text is derived from it.

Columns and labels:
[1] = test system: HUVECs; type: cell-based, human; conditions: for toxicity to HUVECs (FIG. 15): MTS assay, 1, 10 or 100 nM, statement for high concentration (100 nM)
Experimental: Cell viability was detected by a methanethiosulfonate (MTS) assay. In brief, 2×10^4 HUVECs were seeded to a 48-well plates in 100 μl endothelial cell medium (ECM, ScienCell Research Laboratory, Cat. 1001, USA) per well and incubated for 24 hrs. The media was removed and the cells were then incubated with media having 2% fetal bovine serum (FBS), in the absence or presence of various peptides, such as PLY, PLY123, PLY4, C70PLY4 or N35PLY4, at a concentration of 1, 10 or 100 nM. After incubation for 18 hours, the media was removed and 20 μl MTS reagents (20%) were added to each well in the final volume of 100 μl and placed in incubator for 1 hours. The optical density was measured at 490 nm using a plate reader.

[2] = test system: neointima formation of aorta; experiment: Neointima formation of aorta (HE stain) in STZ-treated HFD-fed rats; type: in vivo
Experimental: The ascending part of aorta were taken from mice, including control health mice and HFD induced diabetic mice, with and without treatment of C70PLY4, and kept in 10% formalin buffered for 24 h. The specimens were routinely embedded in paraffin blocks and cut in transversal sections (3 μm). The slides were stained with hematoxylin and eosin. The specimens were analyzed with light microscope.
The present study determined if C70PLY4 attenuates the status of atherosclerosis in HFD-fed rats.

[3] = test system: HUVECs; experiment: Cell apoptosis, TUNEL assay in HUVECs; type: cell-based, human; conditions: positive control of TUNEL and caspase-3 assays
Experimental: Cell apoptosis was detected by using commercial terminal deoxynucleotidyl transferase-dUTP nick end labeling (TUNEL) and caspase-3 activity kits, i.e., Apo-BrdU in Situ DNA Fragmentation Assay Kit (BioVision) and NucView™ 488 Caspase-3 Enzyme Substrate (Biotium). In brief, after incubation with M199 media in the presence or absence of […] various PLY peptides, at 37° C., 5% CO2 for 1 hour, HUVECs were washed with PBS and fixed with fixation buffer on ice for 20 min. Cells were then soaked in 70% alcohol for 1 hr. After 2 times of wash by washing buffer, cells were incubated in DNA labeling solution for 60 min at 37° C. Cells were then treated with rinse buffer and incubated with antibody buffer for 30 min at room temperature. The cell nuclei were stained with propidium iodide for 30 min. Samples were observed by fluorescent microscopeand photographed charge-coupled device (CCD) camera.

[4] = target: MD2/TLR4 interaction (Homo sapiens, UniProt O00206); experiment: In vitro protein competition binding assay for MD2/TLR4 interaction; conditions: MD2 50 nM, peptide 50 μM to 3.05 nM
MD2/TLR4 interaction, sequence (O00206 24-631): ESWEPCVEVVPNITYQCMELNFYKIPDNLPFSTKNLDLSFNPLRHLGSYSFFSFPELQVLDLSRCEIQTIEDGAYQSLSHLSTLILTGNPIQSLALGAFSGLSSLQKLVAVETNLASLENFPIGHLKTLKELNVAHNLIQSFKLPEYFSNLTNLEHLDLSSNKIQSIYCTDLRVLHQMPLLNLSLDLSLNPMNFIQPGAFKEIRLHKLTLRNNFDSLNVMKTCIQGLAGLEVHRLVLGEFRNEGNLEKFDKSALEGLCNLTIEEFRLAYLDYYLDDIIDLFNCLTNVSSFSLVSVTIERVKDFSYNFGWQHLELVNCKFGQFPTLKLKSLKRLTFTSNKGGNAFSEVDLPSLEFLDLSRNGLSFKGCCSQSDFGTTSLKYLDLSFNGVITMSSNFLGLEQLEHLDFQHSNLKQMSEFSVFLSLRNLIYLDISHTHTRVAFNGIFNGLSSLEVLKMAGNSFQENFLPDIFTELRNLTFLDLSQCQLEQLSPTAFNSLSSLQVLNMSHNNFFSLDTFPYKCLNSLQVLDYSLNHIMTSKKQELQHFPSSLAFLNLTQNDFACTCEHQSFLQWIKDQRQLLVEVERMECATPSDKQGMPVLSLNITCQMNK
Experimental: The recombinant TLR4 protein was diluted in PBS (2 μg/mL) and immobilized on a 96-well (100 ng/well) ELISA plate by incubation at 37° C. for 2 h. The wells were washed three times with PBS, followed by blocking with the addition of 300 μL 5% BSA in PBS at ambient temperature overnight. Then, the plate was rewashed three times with PBST before performed competition binding assay. The binding of MD2 (50 nM) to TLR4 was competed by adding various amounts (2-fold serial dilution from 50 μM to 3.05 nM) of C70PLY4, N35PLY4, or M50PLY4 peptide, and the residual binding was examined using anti-MD2 and anti-mouse-IgG-HRP antibodies diluted in 1% BSA as described in herein.

[5] = target: recombinant TLR4 protein (Homo sapiens, UniProt O00206); experiment: In vitro protein binding assay for MD2 and TLR4 (ELISA); conditions: TLR4 2 μg/mL coated, MD2 133.3 to 0.065 nM; read-out: Kd, binding affinity to the TLR4 protein
recombinant TLR4 protein, sequence (O00206 24-839): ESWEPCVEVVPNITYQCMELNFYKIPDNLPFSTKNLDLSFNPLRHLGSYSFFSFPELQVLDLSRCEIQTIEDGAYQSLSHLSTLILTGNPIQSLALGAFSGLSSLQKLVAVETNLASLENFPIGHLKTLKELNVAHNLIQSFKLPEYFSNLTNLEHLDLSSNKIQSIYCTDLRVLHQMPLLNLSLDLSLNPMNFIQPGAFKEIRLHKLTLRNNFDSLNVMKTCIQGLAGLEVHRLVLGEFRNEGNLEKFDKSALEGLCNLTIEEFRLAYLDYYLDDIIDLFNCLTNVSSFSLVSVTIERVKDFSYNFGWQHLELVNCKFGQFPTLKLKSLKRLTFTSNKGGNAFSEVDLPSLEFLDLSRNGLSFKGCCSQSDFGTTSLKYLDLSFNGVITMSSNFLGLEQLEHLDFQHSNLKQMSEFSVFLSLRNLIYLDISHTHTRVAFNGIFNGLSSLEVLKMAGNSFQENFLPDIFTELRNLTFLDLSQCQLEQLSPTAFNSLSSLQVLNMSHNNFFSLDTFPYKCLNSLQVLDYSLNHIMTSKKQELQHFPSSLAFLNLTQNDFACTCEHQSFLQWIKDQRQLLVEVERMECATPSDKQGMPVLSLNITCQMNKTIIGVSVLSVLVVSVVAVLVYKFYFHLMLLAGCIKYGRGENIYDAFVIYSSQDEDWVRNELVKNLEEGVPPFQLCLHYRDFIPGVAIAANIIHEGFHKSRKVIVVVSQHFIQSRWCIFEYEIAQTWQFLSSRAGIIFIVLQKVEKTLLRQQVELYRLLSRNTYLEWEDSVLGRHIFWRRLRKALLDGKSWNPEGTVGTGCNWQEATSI
Experimental: The recombinant TLR4 protein was diluted in phosphate buffer saline (PBS) (2 μg/mL) and immobilized on a 96-well (100 ng/well) enzyme-linked immunosorbent assay (ELISA) plate by incubation at 37° C. for 2 h. The wells were washed three times with PBS, followed by blocking with the addition of 300 μL 5% bovine serum albumin (BSA) in PBS at ambient temperature overnight. Then, the plate was washed three times with PBST (PBS with 0.05% Tween 20 solution) before the addition of the recombinant MD2 protein solutions at various concentrations (2-fold serial dilution from 133.3 to 0.065 nM). The ligands (MD2) and TLR4 proteins were incubated at 37° C. for 2 h, and the plate was then washed three times with PBST, followed by the addition of 100 μL anti-MD2 antibodies diluted in 1% BSA (1:1000). After incubation at ambient temperature for 1 h, the plate was washed with PBST three times, followed by the addition of 100 μL anti-mouse IgG-HRP antibodies diluted in 1% BSA (1:2000). After incubation at ambient temperature for 1 h, the plate was washed with PBST three times, followed by the addition of 100 μL of the HRP substrate (i.e. 3,3′,5,5′-tetramethylbenzidine, TMB) to each well. […] The optical density (OD450) in each well was determined using an ELISA plate reader. […]

[6] = test system: TLR4; experiment: LPS-induced PMN transendothelial migration, PMNs from wild type C3H/HeN mice; type: cell-based; conditions: for LPS induced PMN migration (FIGS. 11-12): WT mice model
Experimental: (§1) To obtain mice neutrophils from TLR4-deficient [TLR4(−/−)] C3H/HeJ mice and wild type C3H/HeN mice, inflammation was induced by 0.1 ml of uric acid solution into the peritoneal cavity of the mouse. The uric acid solution (noncrystalline form) was prepared by mixing with saline (10% [wt/vol]) and sonicated for 10 min. Immediately before inoculation, the milky white precipitated uric acid solution was shaken vigorously. Peritoneal exudate cells were harvested 4, 18, or 24 h after injection by two lavages of the peritoneal cavity with 5 ml of cold phosphate-buffered saline (PBS; total volume, 10 ml). Uric acid-induced peritoneal cells (UAPMN) were washed by centrifugation at 200×g for 10 min at 4° C. Followed by hypotonic lysis to eliminate red blood cells, centrifugation and an additional wash were performed. The cells were then resuspended in Krebs-Ringer phosphate buffer (KRG; pH 7.3). The numbers and populations of peritoneal exudate cells were determined by staining the nuclei with Turk reagent and by cytospin centrifugation followed by May-Grünwald-Giemsa staining, respectively. Uric acid injection into the peritoneal cavity gave a yield of 1 to 2×10^7 cells/mouse depending on time of incubation (4 hr). The levels of purity of the uric acid-induced PMN were 95% after 4 h postinjection. Viability of the isolated neutrophils exceeded 95% as determined by trypan blue exclusion. The PMN from TLR4(−/−) C3H/HeJ mice and wild type C3H/HeN mice were then used for PMN transmigration Assay.
Neutrophils from human were isolated blood that was drawn in a syringe containing preservative-free heparin (20 U/ml final), and mixed with an equal volume of PBS containing 3% dextran and then incubated for 20 min at room temperature. The leukocyte-rich plasma (upper layer) was collected and pellet cells was obtained from the plasma by centrifuge and resuspended in 0.9% NaCl. Layer 10 ml Ficoll-Hypaque solution beneath the cell suspension. After centrifuge 1500×g for 20 min, aspirate the Ficoll-Hypaque layer, leaving the neutrophil/RBC pellet. Cells were subjected to hypotonic lysis by resuspending each neutrophil/RBC pellet in cold 0.2% NaCl for 30 sec. At the end of this period, restore isotonicity by adding ice-cold 1.6% NaCl. After centrifuge, resuspend cells in ice-cold PBS/glucose buffer. Neutrophils from mice were isolated from the peritoneum as previously described. See, e.g., Rabes et al., Curr Top Microbiol Immunol 397:215-227 (2016). The cell concentration was adjusted to […]. The viability of the isolated neutrophils exceeded 95%, as determined by Trypan blue exclusion.
Transendothelial migration was performed by using a Transwell system. Transwell filters were pre-seeded with HUVEC monolayers for 24 hrs and transferred to clean 24-well plates. HUVECs were washed twice with DPBS, 500 μl of ECM was added to the Transwell filter compartment and 10^6 neutrophils were then added in upper chamber. Transendothelial migration was stimulated by addition of LPS to the lower chamber to a final concentration of 1 μg/ml. Cells were incubated with the endothelial cells for 1 h at 37° C. At the conclusion of the incubation, migrated cells were collected from the lower chamber and counted in a hemacytometer in triplicate. Percent PMN transmigration was calculated by dividing the number of PMN recovered from the lower chamber by the number of PMN initially added.
PMN transendothelial migration plays an important role in early stage of atherogenesis. […].

[7] = test system: PMNs isolated from TLR4(−/−) mice C3H/HeJ; experiment: LPS-induced PMN transendothelial migration, PMNs from TLR4(-/-) C3H/HeJ mice; type: cell-based; conditions: LPS 1 μg/ml, HUVEC monolayer Transwell
Experimental: as §1, with “Followed by hypotonic lysis to eliminate red blood cells, centrifugation and an additional wash were performed. The cells were then resuspended in Krebs-Ringer phosphate buffer (KRG; pH 7.3).” left out, “Uric acid injection into the peritoneal cavity gave a yield of 1 to 2×10^7 cells/mouse depending on time of incubation (4 hr). The levels of purity of the uric acid-induced PMN were 95% after 4 h postinjection.” left out, “The PMN from TLR4(−/−) C3H/HeJ mice and wild type C3H/HeN mice were then used for PMN transmigration Assay.” left out
Neutrophils from human were isolated blood that was drawn in a syringe containing preservative-free heparin (20 U/ml final), and mixed with an equal volume of PBS containing 3% dextran and then incubated for 20 min at room temperature. […] The viability of the isolated neutrophils exceeded 95%, as determined by Trypan blue exclusion. […]

## CC[C@H](C)[C@H](NC(=O)[C@H](CCCCN)NC(=O)[C@@H](NC(=O)[C@H](CO)NC(=O)[C@H](CC(C)C)NC(=O)[C@H](CC(N)=O)NC(=O)[C@H](CCCNC(=N)N)NC(=O)[C@@H](NC(=O)[C@H](CC(N)=O)NC(=O)CNC(=O)[C@H](CCCCN)NC(=O)[C@H](CC(C)C)NC(=O)[C@@H]1CCCN1C(=O)[C@@H](NC(=O)[C@H](CO)NC(=O)[C@@H](NC(=O)[C@@H](NC(=O)[C@H](Cc1ccccc1)NC(=O)[C@H](Cc1c[nH]cn1)NC(=O)[C@H](C)NC(=O)[C@@H](NC(=O)[C@H](CC(C)C)NC(=O)[C@H](CC(=O)O)NC(=O)[C@@H](N)CCC(N)=O)[C@@H](C)O)[C@@H](C)O)[C@@H](C)O)[C@@H](C)CC)C(C)C)C(C)C)C(=O)N[C@@H](CCCNC(=N)N)C(=O)N[C@@H](CCC(=O)O)C(=O)N[C@@H](CS)C(=O)N[C@H](C(=O)NCC(=O)N[C@@H](CC(C)C)C(=O)N[C@@H](C)C(=O)N[C@@H](Cc1c[nH]c2ccccc12)C(=O)N[C@@H](CCC(=O)O)C(=O)N[C@@H](Cc1c[nH]c2ccccc12)C(=O)N[C@@H](Cc1c[nH]c2ccccc12)C(N)=O)[C@@H](C)O [N35PLY4] (H-QDLTAHFTTSIPLKGNVRNLSVKIRECTGLAWEWW-NH2)
[1]
  toxicity to HUVECs (FIG. 15): no toxic effects

## CC(=O)N[C@@H](CS)C(=O)O [NAC, N-acetylcycteine, reference compound]
[2]
  neointima formation of aorta induced by STZ: partially improve the STZ effect on the neointima formation

## CC[C@@]1(O)C(=O)OCc2c1cc1n(c2=O)Cc2cc3ccccc3nc2-1 [camptothecin, reference compound]
[3]
  apoptotic cells: about 60%

## M50PLY4: peptide of 6th to 55th amino acid residues of C70PLY4 (407-456), lacking the N-terminal motif QDLTA, SEQ ID NO: 8 (HFTTSIPLKGNVRNLSVKIRECTGLAWEWWRTVYEKTDLPLVRKRTISIW) [reference compound]
[4]
  blocking capability for MD2 and TLR4 protein interaction (in words): no competitive capability

## MD2: recombinant MD2 protein, an extracellular protein associated with the extracellular domain of TLR4 protein
[5]
  Kd: 18.4 ± 3.9 nM

## N35PLY4m24L25K: N35PLY4 with double mutations, position 24 I to L and position 25 R to K, SEQ ID NO: 7 (QDLTAHFTTSIPLKGNVRNLSVKLKECTGLAWEWW)
[6]
  LPS induced PMN migration (FIGS. 11-12): inhibitory effects

## N35PLY4m25K (QDLTAHFTTSIPLKGNVRNLSVKIKECTGLAWEWW)
[6]
  LPS induced PMN migration (FIGS. 11-12): inhibitory effects

## full-length PLY: full length pneumococcal pneumolysin, 1-471 amino acid residues, SEQ ID NO: 1, prepared by recombinant technology [reference compound]
[1]; HUVECs, 100 nM, 18 hours, MTS
  cells survived: 30%
[1]
  toxicity to HUVECs (FIG. 15): toxic to cells
[6]; PMNs from C3H/HeN mice, LPS 1 μg/ml, HUVEC monolayer Transwell
  PMNs migration, WT mice model (FIG. 10): did not affect the PMNs migration
[6]
  LPS induced PMN migration (FIGS. 11-12): enhances PMN migration induced by LPS
[7]
  PMNs migration, TLR4(−/−) mice model (FIG. 10): did not affect the PMNs migration
